Measurements as given in US8048919B2, “Use of ethyl lactate as an excipient for pharmaceutical compositions” (Archer Daniels Midland Company, priority 2004, dated 2011).

Experiment: Resistance of high purity ethyl lactate to peroxide formation in air (Quantofix test paper)
Type: physicochemical
Details: for level of peroxide: 250 ml ethyl lactate + 0.3 g agent, stirred in air
Procedure: In the procedure used, 250 ml of high purity ethyl lactate containing 0.0 ppm of peroxide as measured with Quantofix™ test paper was added to each of four beakers. The first beaker served as a control and was not treated with any chemical agent. The second beaker was treated with 0.3 g of BHT. The third beaker was treated with 0.3 g of cysteine and the fourth beaker was treated with 0.3 g of methionine. […] The level of peroxide in each of the ethyl lactate samples was monitored and is reported as a function of time in Table 2.

level of peroxide (time 0 minutes) [ppm] | level of peroxide (time 15 minutes) [ppm] | level of peroxide (time 30 minutes) [ppm] | level of peroxide (time 60 minutes) [ppm] | level of peroxide (time 75 minutes) | level of peroxide (time 90 minutes) | level of peroxide (time 105 minutes) [ppm] | level of peroxide (time 120 minutes) [ppm] | level of peroxide (time 150 minutes) [ppm] | level of peroxide (time 180 minutes) [ppm] | level of peroxide (time 240 minutes) | level of peroxide (time 300 minutes) [ppm] | level of peroxide (time 360 minutes) [ppm] | level of peroxide (time 1440 minutes) | effectiveness as stabilizer against peroxide generation (compared with the other compounds evaluated) | Gardner color rating (ethyl lactate stabilized with BHT, throughout the trial period) | SMILES
0.0 | 0.0 | 0.0 | 0.0 | 0.0 ppm | 0.0 ppm | 0.0 | 0.0 | 0.0 | 0.0 | 0.0 ppm | 0.0 | 0.0 | 0.0 ppm | most effective | 1 | Cc1cc(C(C)(C)C)c(O)c(C(C)(C)C)c1 [BHT, butylated hydroxyl toluene]
0.0 | 0.0 | 0.0 | 0.0 | 0.0 ppm | 0.0 ppm | 0.0 | 0.0 | 0.0 | 0.0 | 0.0 ppm | 0.0 | 0.0 | 0.0-0.5 ppm | – | – | N[C@@H](CS)C(=O)O [Cysteine, cysteine]
0.0 | 0.0 | 0.0 | 0.5 | 0.5-2.0 ppm | 0.5-2.0 ppm | 2.0 | 2.0 | 2.0 | 5.0 | 2.0-5.0 ppm | 5.0 | 5.0 | 5.0 ppm | – | – | CSCC[C@H](N)C(=O)O [Methionine, methionine]
